Reference: publication PMC12266748, “A Xanthine Derivative With Novel Heat Shock Protein 90‐Alpha Inhibitory and Senolytic Properties” (Aging Cell, 2025)
Where two headings read alike, the source gives them in different places.

Tests used:
[1] = molecular target: T1, HSP90α (Homo sapiens, UniProt P07900); test: HSP90 N-Terminal Domain Assay Kit, fluorescence polarization competition with FITC-Geldanamycin; assay type: binding; design: purchased BPS Bioscience 50293; details: dose-response 1 pM to 10 μM, n = 3, extrapolated with GraphPad Prism; read-out: HSP90α inhibition IC50
Method: HSP90‐directed inhibitory activity was assessed employing the HSP90 N‐Terminal Domain Assay Kit (BPS Bioscience) according to the manufacturer's instructions. The fluorescence intensity was measured with a multiplate reader (Victor Nivo‐Perkin Elmer). The IC50 was calculated by analyzing the data using GraphPad Prism 10 software.
HSP90 inhibition activity assay. […] […] […] Data are the percentage of residual enzyme activity relative to the solvent (DMSO). The IC50s were calculated by analyzing the data using GraphPad Prism 10 software.

[2] = molecular target: T1, HSP90α; test: Cellular thermal shift assay (CETSA) on cellular lysates, HSP90α; details: 46°C, compound 0.5 mM
Method: Cellular Thermal Shift Assay (CETSA). […] Briefly, the cellular extract was lysed in RIPA buffer (10 mM Tris-HCl pH 7.4, 250 mM NaCl, 1% NP40/IGEPAL, 1% DOC, 0.01% SDS, 0.01% Glycerol, supplemented with protease/phosphatase inhibitor, PI/PhI mix and 2 mM DTT) and protein concentration was determined by a BCA kit (Pierce, Life Technologies, TFS, Waltham, MA, USA). Samples were homogenized by 3 cycles of freeze-thawing using liquid nitrogen and centrifuged at 13000 rpm at 4 °C for 30 min to separate the soluble fraction from the debris.
Following the supplier's recommendations, samples were loaded into the proper cartridge (12- 230 kDa Wes/Jess Separation Modules, ProteinSimple, Biotechne, Minneapolis, MN, USA). HSP90α (1:50, MsMAb, Abcam), HSP90β (1:50, RbMAb, Abcam), GRP94 (1:50, RbMAb, Abcam), TRAP1 (1:50, MsMAb, Abcam), α-Tubulin (1:500, MsMAb, Abcam), and β-Actin (1:500, RbMAb, Abcam) were used as primary antibodies. Secondary antibodies were Anti-Mouse Secondary HRP and Anti-Rabbit Secondary HRP (ProteinSimple, Biotechne, Minneapolis, MN, USA).

[3] = test system: IMR90 cells; test: In vitro screening of the 14 in silico-selected compounds, surviving cell count, proliferating vs senescent IMR90; assay type: cell-based, Homo sapiens; details: 48 h; for effect on non-senescent IMR90 cells: PD15-PD17, 1 μM; for senolytic activity on senescent IMR90 cells: PD19-PD21, 1 μM
Source text: (§1) IMR90 and WI38 lung fibroblasts were purchased from ECACC‐Merck. Human bone marrow (BM)‐derived mesenchymal stromal cells (MSCs) were purchased from Lonza. Human umbilical vein endothelial cells (HUVECs) are primary cells obtained from a pool of donors purchased from Clonetics (Lonza). Murine ear fibroblasts (MearFs) were obtained from C57BL/6J mice maintained in the INRCA “Specific Pathogen Free” (SPF) animal facility. MCF7 breast cancer cells were purchased from ATCC. For dose–response curves, IMR90 and WI38 were induced to senescence through replicative passages; MSCs, HUVECs, and MearFs senescence was induced with Doxorubicin; MCF7 senescence was induced with 4‐Hydroxytamoxifen (Lee et al. [2014]). The EC50 was calculated using GraphPad Prism 10 software. All treatment specifications are reported in the extended section.
(§2) Cell culture and treatment. IMR90 cells (Homo sapiens, fetal lung, fibroblast) and WI38 cells (Homo sapiens, fetal lung, fibroblast) were purchased from ECACC-Merck (Merck, Darmstadt, Germany) and cultured in MEM medium (Euroclone, Milano, Italy) supplemented with 1% L-Glutamine (Euroclone, Milano, Italy), 1% Penicillin-Streptomycin (Euroclone, Milano, Italy), and 10% Fetal Bovine Serum (FBS, Euroclone, Milano, Italy), at 37°C, 5% CO2. IMR90 cells with a population doubling (PD) from PD15 to PD23 were used; cells were considered incrementally senescent from passage PD19 to passage PD23. WI38 cells were used from PD26 to PD53. Cells were considered incrementally senescent from passage PD49 to passage PD53. For the compounds in vitro screening, IMR90 cells with passages from PD15 to PD23 were tested at increasing concentrations of 0.5 μM, 1 μM, 10 μM, and 25 μM over 24 and 48 h to evaluate the compounds' efficacy and cytotoxicity compared to the Vehicle (DMSO ≤ 0.1%). Cells were counted manually, in triplicate, using Trypan blue reagent (Euroclone) and disposable Bürker chambers. […] K5 dose-response proliferation curves were performed with compound K5 (Molport, SIA, Riga, Latvia) in concentrations 0.1, 0.5, 1, 5, 10, 50, 100, and 200 μM for 48 h. Cells were counted using a Trypan blue reagent and EVAplus cell counter. The EC50s were calculated by analyzing the data using GraphPad Prism 10 software.

[4] = test system: IMR90 cells; test: Dose-response curves on proliferating and replicative senescent IMR90 (Trypan blue cell count); assay type: cell-based
Source text: as §1, §2
MCF7 cell line (ATCC; HTB-22, Homo sapiens, breast cancer) was purchased from ATCC; cells were grown in MEM medium (Corning, New York, USA, #15-010-CVR) supplemented with 10% FBS (Gibco, Invitrogen, Carlsbad, CA, USA, #10270106), 1% glutamine (Corning #25005-CI), 1% penicillin and streptomycin (Corning #30002-CI). Cells were incubated at 37 °C with 5% CO2. Senescent status induction: MCF7 were plated 24 h before the treatment with 4-Hydroxytamoxifen (TAM) 10 μM to induce the senescence described by (Lee et al. 2014). Control cultures were treated with equal volumes of 75% ethanol as the vehicle. The treatment with TAM lasts 96 h, after which the cells have been washed and treated with the senolytic drugs K5 10 µM for another 96 h. The treatment with the senolytic compounds has been renewed at 48 h. Cell mortality and vitality curves after treatment with K5 (10 μM, orange) or Vehicle (DMSO, grey) were monitored using the Incucyte live-cell Analysis system (Sartorius, Goettingen, Germany). The estimated Senolytic index (SI) was calculated as the ratio between the EC50 in proliferating cells and the EC50 in senescent cells, extrapolated using GraphPad Prism 10 software.

[5] = test system: IMR90 cells; test: as above; assay type: cell-based; details: proliferating IMR90 (PD14), 48 h
[6] = test system: IMR90 cells; test: Immunofluorescence of Cytochrome C / mitochondria colocalization in senescent IMR90; assay type: cell-based, Homo sapiens; details: senescent IMR90 (PD21), 48 h, K5 25 μM, Dasatinib 1 μM; Vehicle OR = 0.913
Method: (§3) Treated/untreated senescent IMR90 and MCF7 cells were fixed, permeabilized, and stained following suppliers' recommendations. Images were acquired using an Olympus IX83 research inverted microscope (IF) and a phase microscopy Nikon ECLIPSE Ei R (IHC) at 40× MAG.
(§4) Immunofluorescence staining. Treated/untreated IMR90 and MCF7 cells were cultured in LabTek II chamber slides (Nunc, Biosigma). At the final time point, cells were stained with 500 nM MitoTracker Orange (Thermo Fisher Scientific) for 30 min at 37°C and then fixed in 4% PFA (Merck) for 10 min, RT, and permeabilized with 0.1% Triton solution (Merck) for 30 min at RT. Samples were blocked in 5% BSA for 90 min, incubated overnight at 4°C with primary antibody against Cytochrome C (1:50, RbMAb, Abcam), and 1h at RT with secondary antibody Alexa Fluor 488 goat anti-Rb (1:200, Thermo Fisher Scientific). Nuclei were stained with DAPI (Cell Signaling) for 10 min at RT, and ProLong Glass Antifade Mountant (Thermo Fisher Scientific) was used to seal coverslips. Images were acquired using an Olympus IX83 research inverted microscope at 40X magnifications.

[7] = test system: MCF7 cells; test: Immunofluorescence of Cytochrome C / mitochondria colocalization in senescent MCF7; assay type: cell-based, Homo sapiens; details: MCF7, TAM 10 µM 96 h, then 72 h K5 10 µM or Dasatinib 1 µM
Method: as §3, §4

## Cn1c(=O)c2c(ncn2C)n(C)c1=O [Caffeine, reference compound]
[1]
  IC50: > 300000 nM
[2]
  interaction / stabilization of HSP90α in CETSA: does not interact with the protein

## CO[C@H]1/C=C\C=C(/C)C(=O)NC2=CC(=O)C(NCCN(C)C)=C(C[C@@H](C)C[C@H](OC)[C@H](O)[C@@H](C)/C=C(\C)[C@@H]1OC(N)=O)C2=O [Compound 17-DMAG]
[3]
  effect on non-senescent IMR90 cells: cytotoxic effects also visible in non
[4]; IMR90, Replicative/passages
  Senolytic evidence (no, partly/yes): Yes
[4]; IMR90, Replicative/passages, read-out: EC50 senescent cells
  EC50: 85 nM
[4]; IMR90, read-out: EC50 proliferating cells
  EC50: 780 nM
[5]
  EC50: 785 nM

## Cc1nc(Nc2ncc(C(=O)Nc3c(C)cccc3Cl)s2)cc(N2CCN(CCO)CC2)n1 [Dasatinib, reference compound]
[6]
  Cytochrome C / mitochondria colocalization, Overlap R (OR): 0.639
[7]; TAM + Vehicle OR = 0.978
  Cytochrome C / mitochondria colocalization, Overlap R (OR): 0.956
[7]; TAM + Vehicle PRr = 0.961
  Cytochrome C / mitochondria colocalization, Pearson's Rr (PRr): 0.928

## O=S(=O)(NCc1ccc(-c2ccc(F)cc2F)o1)c1ccccc1 [Compound C2, N-{[5-(2,4-difluorophenyl)furan-2-yl]methyl}benzenesulfonamide]
[3]
  senolytic activity on senescent IMR90 cells: evident senolytic activity

## Cc1[nH]nc(-c2ccc(O)cc2O)c1Oc1ccc(F)cc1 [Compound B2, 4-[4-(4-fluorophenoxy)-5-methyl-1H-pyrazol-3-yl]benzene-1,3-diol]
[3]
  senolytic activity on senescent IMR90 cells: evident senolytic activity

## CC(C)c1cc(-c2n[nH]c(=O)n2-c2ccc3c(ccn3C)c2)c(O)cc1O [Ganetespib]
[3]
  effect on non-senescent IMR90 cells: cytotoxic effects also visible in non
[4]; Homo sapiens, IMR-90, IMR90, Replicative/passages, read-out: EC50 senescent cells
  EC50: 87 nM
[4]; Homo sapiens, IMR-90, IMR90, read-out: EC50 proliferating cells
  EC50: 1000 nM
[4]; IMR90, Replicative/passages
  Senolytic evidence (no, partly/yes): Yes
[5]; Homo sapiens, IMR-90
  EC50: 1040 nM
